Data published in PubChem BioAssay (NCI).
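Values below derive from 48-hour exposures of cells grown in 96-well plates, with endpoints linearly interpolated between the two concentrations bracketing the appropriate inhibition level. TGI: total growth inhibition.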

Tests used:
Test in all cases: DTP human tumour cell line panel, 48 h
[1] = tested on: OVCAR-8 ovarian
[2] = tested on: SK-MEL-2 melanoma
[3] = tested on: SN12C renal
[4] = tested on: CAKI-1 renal
[5] = tested on: NCI-H23 lung
[6] = tested on: SNB-19 CNS
[7] = tested on: 786-0 renal
[8] = tested on: LOX IMVI melanoma
[9] = tested on: OVCAR-3 ovarian
[10] = tested on: SW-620 colon
[11] = tested on: U251 CNS
[12] = tested on: RPMI-8226 leukemia
[13] = tested on: SF-295 CNS
[14] = tested on: HCT-116 colon
[15] = tested on: HT29 colon
[16] = tested on: EKVX NSCLC
[17] = tested on: ACHN renal
[18] = tested on: HOP-62 NSCLC
[19] = tested on: DMS 273 small cell lung
[20] = tested on: SF-539 CNS
[21] = tested on: NCI-H460 lung
[22] = tested on: HOP-92 NSCLC
[23] = tested on: TK-10 renal
[24] = tested on: SF-268 CNS
[25] = tested on: XF 498 CNS
[26] = tested on: KM20L2 colon
[27] = tested on: OVCAR-4 ovarian
[28] = tested on: A549 NSCLC
[29] = tested on: RXF 393 renal
[30] = tested on: UACC-257 melanoma
[31] = tested on: SNB-75 CNS
[32] = tested on: M19-MEL melanoma
[33] = tested on: SK-MEL-5 melanoma
[34] = tested on: HOP-18 NSCLC
[35] = tested on: COLO 205 colon
[36] = tested on: CCRF-CEM leukemia
[37] = tested on: A498 renal
[38] = tested on: HCT-15 colon
[39] = tested on: SNB-78 CNS
[40] = tested on: MALME-3M melanoma
[41] = tested on: SR leukemia
[42] = tested on: OVCAR-5 ovarian
[43] = tested on: K-562 leukemia
[44] = tested on: IGROV1 ovarian
[45] = tested on: SK-MEL-28 melanoma
[46] = tested on: KM12 colon
[47] = tested on: UACC-62 melanoma
[48] = tested on: DLD-1 colon
[49] = tested on: LXFL 529 NSCLC
[50] = tested on: NCI-H226 lung
[51] = tested on: MOLT-4 leukemia
[52] = tested on: NCI-H522 lung
[53] = tested on: M14 melanoma
[54] = tested on: DMS 114 small cell lung
[55] = tested on: SK-OV-3 ovarian
[56] = tested on: UO-31 renal
[57] = tested on: HL-60(TB) leukemia
[58] = tested on: HCC-2998 colon
[59] = tested on: RXF-631 renal

Measured: TGI

C=CC[C@H]1C[C@@]2(C)OC[C@H](C(C)C)N2C1=O
not listed: [48] | [49] | [50] | [51] | [52] | [53] | [54] | [55] | [56] | [57] | [58] | [59]
> 100 µM: all other assays above

S=c1[nH]c(=S)c2sc(=S)n(-c3ccccc3)c2[nH]1
not listed: [59]
> 100 µM: all other assays above

CCCCCCCCCCC(C)CCCCCCC(=O)OCC(COP(=O)([O-])OCC[N+](C)(C)C)OC(=O)CCCCCCC(C)CCCCCCCCCC (configuration not stated)
not listed: [20] | [25]
> 100 µM: all other assays above
